Measurements: ChEMBL document CHEMBL1201862, “PubChem BioAssay data set” (2004)
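All cell lines were grown in 96-well plates and treated with compound for 48 hours. GI50 = concentration required for 50% inhibition of growth.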 The source made the active and inactive calls. No stated cut-off is given here; in the data, active = GI50 up to about 1.1 µM and inactive = higher.

Key:
Experiment in all cases: DTP human tumour cell line panel, 48 h
KM12 = system: KM12
SK-MEL-28 = system: SK-MEL-28
SW-620 = system: SW-620
ACHN = system: ACHN
OVCAR-4 = system: OVCAR-4
HCC 2998 = system: HCC 2998
CCRF-CEM = system: CCRF-CEM
SN12C = system: SN12C
A498 = system: A498
NCI-H522 = system: NCI-H522
NCI-H460 = system: NCI-H460
786-0 = system: 786-0
RPMI-8226 = system: RPMI-8226
A549 = system: A549
OVCAR-5 = system: OVCAR-5
M14 = system: M14
UACC-62 = system: UACC-62
RXF 393 = system: RXF 393
BT-549 = system: BT-549
IGROV-1 = system: IGROV-1
UO-31 = system: UO-31
COLO 205 = system: COLO 205
Malme-3M = system: Malme-3M
T47D = system: T47D
PC-3 = system: PC-3
SNB-19 = system: SNB-19
U-251 = system: U-251
NCI-H226 = system: NCI-H226
NCI-H23 = system: NCI-H23
DU-145 = system: DU-145
CAKI-1 = system: CAKI-1
MDA-N = system: MDA-N
SNB-75 = system: SNB-75
Hs-578T = system: Hs-578T
UACC-257 = system: UACC-257
SK-MEL-5 = system: SK-MEL-5
HCT-116 = system: HCT-116
SF-539 = system: SF-539
MDA-MB-435 = system: MDA-MB-435
HOP-92 = system: HOP-92
SF-295 = system: SF-295
OVCAR-3 = system: OVCAR-3
MDA-MB-231 = system: MDA-MB-231
EKVX = system: EKVX
SK-OV-3 = system: SK-OV-3
SF-268 = system: SF-268
HCT-15 = system: HCT-15
MOLT-4 = system: MOLT-4
HOP-62 = system: HOP-62
NCI/ADR-RES = system: NCI/ADR-RES
HT-29 = system: HT-29
MCF7 = system: MCF7
OVCAR-8 = system: OVCAR-8
K562 = system: K562
SR = system: SR
SK-MEL-2 = system: SK-MEL-2
TK-10 = system: TK-10
HL-60 = system: HL-60
LOX IMVI = system: LOX IMVI

COC(=O)C(C)Sc1nc2cc(Cl)ccc2s1 (centres undefined)
GI50 (KM12): > 100 µM (inactive)
GI50 (SK-MEL-28): > 100 µM (inactive)
GI50 (SW-620): > 100 µM (inactive)
GI50 (ACHN): > 100 µM (inactive)
GI50 (OVCAR-4): > 100 µM (inactive)
GI50 (HCC 2998): > 100 µM (inactive)
GI50 (CCRF-CEM): 78.5 µM (inactive)
GI50 (SN12C): > 100 µM (inactive)
GI50 (A498): > 100 µM (inactive)
GI50 (NCI-H522): > 100 µM (inactive)
GI50 (NCI-H460): > 100 µM (inactive)
GI50 (786-0): > 100 µM (inactive)
GI50 (RPMI-8226): > 100 µM (inactive)
GI50 (A549): > 100 µM (inactive)
GI50 (OVCAR-5): > 100 µM (inactive)
GI50 (M14): > 100 µM (inactive)
GI50 (UACC-62): > 100 µM (inactive)
GI50 (RXF 393): > 100 µM (inactive)
GI50 (BT-549): > 100 µM (inactive)
GI50 (IGROV-1): > 100 µM (inactive)
GI50 (UO-31): > 100 µM (inactive)
GI50 (COLO 205): > 100 µM (inactive)
GI50 (Malme-3M): > 100 µM (inactive)
GI50 (T47D): > 100 µM (inactive)
GI50 (PC-3): > 100 µM (inactive)
GI50 (SNB-19): > 100 µM (inactive)
GI50 (U-251): > 100 µM (inactive)
GI50 (NCI-H226): > 100 µM (inactive)
GI50 (NCI-H23): > 100 µM (inactive)
GI50 (DU-145): > 100 µM (inactive)
GI50 (CAKI-1): > 100 µM (inactive)
GI50 (MDA-N): > 100 µM (inactive)
GI50 (SNB-75): > 100 µM (inactive)
GI50 (Hs-578T): > 100 µM (inactive)
GI50 (UACC-257): > 100 µM (inactive)
GI50 (SK-MEL-5): > 100 µM (inactive)
GI50 (HCT-116): > 100 µM (inactive)
GI50 (SF-539): > 100 µM (inactive)
GI50 (MDA-MB-435): > 100 µM (inactive)
GI50 (HOP-92): > 100 µM (inactive)
GI50 (SF-295): > 100 µM (inactive)
GI50 (OVCAR-3): > 100 µM (inactive)
GI50 (MDA-MB-231): > 100 µM (inactive)
GI50 (EKVX): > 100 µM (inactive)
GI50 (SK-OV-3): > 100 µM (inactive)
GI50 (SF-268): > 100 µM (inactive)
GI50 (HCT-15): > 100 µM
GI50 (MOLT-4): > 100 µM (inactive)
GI50 (HOP-62): > 100 µM (inactive)
GI50 (NCI/ADR-RES): > 100 µM (inactive)
GI50 (HT-29): > 100 µM (inactive)
GI50 (MCF7): > 100 µM (inactive)
GI50 (OVCAR-8): > 100 µM (inactive)
GI50 (K562): 78.9 µM (inactive)

COc1cccc(C23CCN(C)C(CC(O)C2)C3)c1OC (centres undefined)
GI50 (KM12): > 100 µM (inactive)
GI50 (SK-MEL-28): > 100 µM (inactive)
GI50 (SW-620): > 100 µM (inactive)
GI50 (ACHN): > 100 µM (inactive)
GI50 (OVCAR-4): > 100 µM (inactive)
GI50 (CCRF-CEM): > 100 µM (inactive)
GI50 (SN12C): > 100 µM (inactive)
GI50 (A498): > 100 µM (inactive)
GI50 (NCI-H522): > 100 µM (inactive)
GI50 (786-0): > 100 µM (inactive)
GI50 (RPMI-8226): > 100 µM (inactive)
GI50 (A549): > 100 µM (inactive)
GI50 (OVCAR-5): > 100 µM (inactive)
GI50 (SR): > 100 µM (inactive)
GI50 (M14): > 100 µM (inactive)
GI50 (UACC-62): > 100 µM (inactive)
GI50 (BT-549): > 100 µM (inactive)
GI50 (SK-MEL-2): > 100 µM (inactive)
GI50 (IGROV-1): > 100 µM (inactive)
GI50 (UO-31): > 100 µM (inactive)
GI50 (COLO 205): > 100 µM (inactive)
GI50 (Malme-3M): > 100 µM (inactive)
GI50 (TK-10): > 100 µM (inactive)
GI50 (T47D): > 100 µM (inactive)
GI50 (PC-3): > 100 µM (inactive)
GI50 (SNB-19): > 100 µM (inactive)
GI50 (U-251): > 100 µM (inactive)
GI50 (HL-60): > 100 µM (inactive)
GI50 (NCI-H226): > 100 µM (inactive)
GI50 (NCI-H23): > 100 µM (inactive)
GI50 (DU-145): > 100 µM (inactive)
GI50 (CAKI-1): > 100 µM (inactive)
GI50 (MDA-N): > 100 µM (inactive)
GI50 (Hs-578T): > 100 µM (inactive)
GI50 (UACC-257): > 100 µM (inactive)
GI50 (SK-MEL-5): > 100 µM (inactive)
GI50 (HCT-116): > 100 µM (inactive)
GI50 (SF-539): > 100 µM (inactive)
GI50 (MDA-MB-435): > 100 µM (inactive)
GI50 (LOX IMVI): > 100 µM (inactive)
GI50 (HOP-92): > 100 µM (inactive)
GI50 (SF-295): > 100 µM (inactive)
GI50 (OVCAR-3): > 100 µM (inactive)
GI50 (MDA-MB-231): > 100 µM (inactive)
GI50 (EKVX): > 100 µM (inactive)
GI50 (SK-OV-3): > 100 µM (inactive)
GI50 (SF-268): > 100 µM (inactive)
GI50 (HCT-15): > 100 µM
GI50 (MOLT-4): > 100 µM (inactive)
GI50 (HOP-62): > 100 µM (inactive)
GI50 (NCI/ADR-RES): > 100 µM (inactive)
GI50 (HT-29): > 100 µM (inactive)
GI50 (MCF7): > 100 µM (inactive)
GI50 (OVCAR-8): > 100 µM (inactive)
GI50 (K562): > 100 µM (inactive)

CN(C)c1ccc(/C=C2\N=C(N/N=C/c3ccccc3)NC2=O)cc1
GI50 (KM12): 52.6 µM (inactive)
GI50 (SK-MEL-28): > 100 µM (inactive)
GI50 (SW-620): 67.9 µM (inactive)
GI50 (ACHN): > 100 µM (inactive)
GI50 (OVCAR-4): 60.1 µM (inactive)
GI50 (HCC 2998): 42.1 µM (inactive)
GI50 (CCRF-CEM): 35.2 µM (inactive)
GI50 (SN12C): > 100 µM (inactive)
GI50 (A498): > 100 µM (inactive)
GI50 (NCI-H522): 32.2 µM (inactive)
GI50 (NCI-H460): 49.9 µM (inactive)
GI50 (786-0): 44.2 µM (inactive)
GI50 (RPMI-8226): 28.8 µM (inactive)
GI50 (A549): 36.7 µM (inactive)
GI50 (OVCAR-5): > 100 µM (inactive)
GI50 (M14): 89.7 µM (inactive)
GI50 (UACC-62): 79.8 µM (inactive)
GI50 (RXF 393): 20.2 µM (inactive)
GI50 (BT-549): > 100 µM (inactive)
GI50 (SK-MEL-2): > 100 µM (inactive)
GI50 (IGROV-1): 44.9 µM (inactive)
GI50 (UO-31): > 100 µM (inactive)
GI50 (COLO 205): 47.1 µM (inactive)
GI50 (Malme-3M): 69.5 µM (inactive)
GI50 (TK-10): > 100 µM (inactive)
GI50 (T47D): 56.4 µM (inactive)
GI50 (PC-3): 75.3 µM (inactive)
GI50 (SNB-19): > 100 µM (inactive)
GI50 (U-251): 60.5 µM (inactive)
GI50 (HL-60): > 100 µM (inactive)
GI50 (NCI-H226): > 100 µM (inactive)
GI50 (NCI-H23): 50.6 µM (inactive)
GI50 (DU-145): 58.7 µM (inactive)
GI50 (CAKI-1): > 100 µM (inactive)
GI50 (MDA-N): 33.4 µM (inactive)
GI50 (SNB-75): 81.1 µM (inactive)
GI50 (Hs-578T): 43 µM (inactive)
GI50 (UACC-257): > 100 µM (inactive)
GI50 (SK-MEL-5): 41.1 µM (inactive)
GI50 (HCT-116): 83.6 µM (inactive)
GI50 (MDA-MB-435): 33 µM (inactive)
GI50 (HOP-92): 26.4 µM (inactive)
GI50 (SF-295): 69.5 µM (inactive)
GI50 (OVCAR-3): > 100 µM (inactive)
GI50 (MDA-MB-231): > 100 µM (inactive)
GI50 (EKVX): > 100 µM (inactive)
GI50 (SK-OV-3): > 100 µM (inactive)
GI50 (SF-268): 66.5 µM (inactive)
GI50 (HCT-15): 33.4 µM
GI50 (MOLT-4): 26.8 µM (inactive)
GI50 (HOP-62): > 100 µM (inactive)
GI50 (NCI/ADR-RES): 29.1 µM (inactive)
GI50 (HT-29): 40.6 µM (inactive)
GI50 (MCF7): 56.1 µM (inactive)
GI50 (OVCAR-8): 26.3 µM (inactive)
